From PMC7967551 (2021) come the findings set out here.

The test system of assay [1] is Tel23 (DNA, G4) TAGGGTTAGGGTTAGGGTTAGGG
The experiment in a line: UV melting at 295 nm. The settings on record: K+ 100 mM (KCl), Li+, LiCac 2.5 mM, pH 7.0, 5.51 µM G4, no stabilizing effect.

The test system is the same in assay [2]. The experiment in a line: absorbance titration. Particulars: K+ (KCl 0.1 M stated for G4 melting), Li+; LiCac 2.5 mM, pH 7.0; no signal change; highest concentration not stated.

Take `c1cc[n+]2c(c1)-c1cccc[n+]1CC2`: the binding entry in assay [1] (5.47 µM compound) and in assay [2] was “no” in each case.
`C[n+]1ccc(-c2cc[n+](C)cc2)cc1`: the binding result in assay [1] (6.01 µM compound) and in assay [2] was “no” throughout.
